According to patent US12227769B2 (priority 2018, dated 2025):

Tests used:
[1] = tested on: Rous sarcoma virus, HIV-1, RSV, parainfluenza virus type 3, VSV, measles virus, and reovirus; conditions: shown previously [52, 53, 59]; cited from earlier work
[2] = tested on: rgRSV or rgRSV-G1857A-G1853A; type: cell-based, RSV A2 strain; conditions: 15 μg/ml Cc3Ado; rgRSV and rgRSV-G1853A-G1857A-infected cells; day 3
[3] = tested on: rgRSV or rgRSV-G1857A-G1853A; type: cell-based, RSV A2 strain; conditions: 50 μg/ml Cc3Ado, day 3
[4] = tested on: RIG-I; type: cell-based, human
[5] = biological target: T1, Recombinant human RIG-I protein (Homo sapiens, UniProt O95786); assay: Limited trypsin digestion of RIG-I:RNA complexes; type: biochemical; conditions: 2 h trypsin digestion, 2 mM AMP-PNP
T1 construct: trypsin treatment of the full-length RIG-I protein (approximately 110 kDa) yielded a 55-kDa RIG-I fragment; Flag; made in house; host or cells: HEK-293T
T1 sequence (O95786 1-925): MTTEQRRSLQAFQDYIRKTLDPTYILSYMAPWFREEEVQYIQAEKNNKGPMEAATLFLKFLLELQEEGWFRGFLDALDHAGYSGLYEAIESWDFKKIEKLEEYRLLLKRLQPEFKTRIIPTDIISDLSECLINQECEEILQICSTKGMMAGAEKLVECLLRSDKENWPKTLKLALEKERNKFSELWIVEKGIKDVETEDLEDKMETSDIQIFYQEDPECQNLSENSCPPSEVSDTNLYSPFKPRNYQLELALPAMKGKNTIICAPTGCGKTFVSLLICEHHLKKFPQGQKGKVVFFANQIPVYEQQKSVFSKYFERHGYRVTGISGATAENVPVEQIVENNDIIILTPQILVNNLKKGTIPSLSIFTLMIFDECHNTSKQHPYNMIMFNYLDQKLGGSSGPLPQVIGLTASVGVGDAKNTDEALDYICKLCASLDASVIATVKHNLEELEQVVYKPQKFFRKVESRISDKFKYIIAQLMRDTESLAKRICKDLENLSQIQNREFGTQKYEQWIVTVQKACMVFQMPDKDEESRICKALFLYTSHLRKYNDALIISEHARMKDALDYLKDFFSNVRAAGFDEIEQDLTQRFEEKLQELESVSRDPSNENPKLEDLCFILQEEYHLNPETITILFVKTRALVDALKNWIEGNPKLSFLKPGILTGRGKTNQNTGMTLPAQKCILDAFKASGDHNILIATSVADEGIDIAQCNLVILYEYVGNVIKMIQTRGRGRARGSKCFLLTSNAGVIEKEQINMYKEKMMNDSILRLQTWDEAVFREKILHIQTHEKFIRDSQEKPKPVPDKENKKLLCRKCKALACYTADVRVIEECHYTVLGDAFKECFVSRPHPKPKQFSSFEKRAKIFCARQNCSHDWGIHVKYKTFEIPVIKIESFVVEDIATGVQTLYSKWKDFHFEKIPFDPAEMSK

## Nc1nccc2c1ncn2[C@@H]1O[C@H](CO)[C@@H](O)[C@H]1O [3-deazaadenosine]
[1]
  inhibition of virus replication: capable of inhibiting the replication of diverse viruses

## Carbocyclic 3-deazaadenosine [Cc3Ado]
[2]
  effect on RSV spread (GFP) in HEp-2 cells: inhibited rgRSV spread over 3 days
[3]
  effect on GFP signal in rgRSV-G1853A-G1857A-infected HAE cells: the GFP signal was further reduced

## Poly(I.C)
[4]
  expression of RIG-I in RNA-transfected cells: activated RIG-I expression in a dose-dependent manner
[5]
  trypsin-resistant 80-kDa RIG-I fragment: yielded an 80-kDa fragment
